Laboratory results from paper PMC6591177, “Small Molecule IL-36γ Antagonist as a Novel Therapeutic Approach for Plaque Psoriasis” (Scientific Reports, 2019).
One block for each molecule: values may come before it.

Key:
[1] = tested on: IL-1β evoked IL-8 release from HaCaT cells; assay: IL-1β evoked IL-8 release assay in HaCaT cells; type: cell-based, human
Procedure: (§1) The immortalized human keratinocyte cell line HaCaT and mouse fibroblast NIH-3T3 cell line were maintained in culture in DMEM with 10% fetal bovine serum and 1% penicillin/streptomycin added (Sigma). Cells were seeded in 96-well tissue culture plates (Corning) at 25,000 cells per well and allowed to adhere and recover overnight at 37 °C in an incubator. Cells were rinsed with PBS (Sigma) and treated with cytokines diluted in 200 μL/well of the medium (DMEM with 0.5% FBS and 1% penicillin/streptomycin) as indicated. In inhibition mode, the agonist concentration used was at the EC80 for chemokine production and the cells were pre-treated with inhibitors for 30 min prior to adding the agonist. After 24 h of treatment, supernatants were collected and IL-8 and CXCL1[28] levels were assessed using a custom immunoassay (Meso Scale Discovery). EC50/IC50 values were estimated from a four-parameter logistic fit using Prism software (GraphPad).
(§2) The IL-8 release assays were miniaturized for HTS hit follow-up. Frozen aliquots of HaCaT cells were thawed, added to complete media, mixed, spun down, resuspended in fresh media, and dispensed using the Multidrop384 into black, clear-bottom 384 well plates at a final density of 4000 cells/well. […] Cell viability was assessed using Cell Titer-Glo (Promega) according to the manufacturers’ instructions.

HaCaT cells [2] = assay: Cell viability (Cell Titer-Glo) counter screen; type: cell-based, human
Procedure: The IL-8 release assays were miniaturized for HTS hit follow-up. Frozen aliquots of HaCaT cells were thawed, added to complete media, mixed, spun down, resuspended in fresh media, and dispensed using the Multidrop384 into black, clear-bottom 384 well plates at a final density of 4000 cells/well. After a 24 h recovery period at 37 °C/5% CO2, the cell plates were rinsed twice with 40 μL/well fresh media. The Biomek FX workstation was then used to add 10 μL/well compounds. Cell plates were then returned to 37 °C for 15 min incubation, followed by the addition of 10 μl/well of IL-36γ (40 ng/ml final). After an additional 5 h of incubation at 37 °C, 5 μl/well of cell supernatant was removed with the Biomek FX and transferred to a 384 well Proxy Plate for IL-8 detection using the HTRF kit from Cisbio. For the IL-1β evoked release of IL-8, the same protocol was followed, but with a final concentration of 1 ng/mL IL-1β and an overnight incubation instead of 5 h. Cell viability was assessed using Cell Titer-Glo (Promega) according to the manufacturers’ instructions.

human IL-36γ = biological target: T1, human IL-36γ (Homo sapiens, UniProt Q9NZH8); assay: Thermal shift assay, human IL-36γ; type: binding; conditions: 100 μM compound; read-out: increase of melting temperature of human IL-36γ
T1 construct: His6-SUMO-human IL-36γ (18–169); His6-SUMO (N, cleaved yes); made in house; host or cells: E. coli BL21 (DE3)
T1 sequence (Q9NZH8 18-169): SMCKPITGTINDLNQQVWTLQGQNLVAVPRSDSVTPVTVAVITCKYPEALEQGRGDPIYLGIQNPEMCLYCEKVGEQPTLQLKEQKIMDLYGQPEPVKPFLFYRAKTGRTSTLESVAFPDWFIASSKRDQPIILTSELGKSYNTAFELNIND
Procedure: (§3) Thermal shift assays[30] were performed on a Roche LightCycler 480 instrument using Sypro Orange Dye (Invitrogen). Reactions consisted of 0.5–2 µM purified recombinant protein in PBS, pH 7.4, a 1/500 dilution of the stock Sypro Orange reagent, and 100 µM test compounds, resulting in a final DMSO concentration of 1%. The samples were heated from 20 °C to 95 °C at a rate of 0.25 °C per second.

[3] = tested on: human IL-36γ evoked CXCL1 release from Human HaCaT cells; assay: human IL-36γ evoked CXCL1 release, human HaCaT cells; type: cell-based; conditions: ± S.D.
Procedure: as §1

human IL-36α = biological target: T2, human IL-36α (Homo sapiens, UniProt Q9UHA7); assay: Thermal shift assay / affinity, human IL-36α; type: binding; conditions: thermal shift assay at 100 μM (Supplementary Fig. 4)
T2 construct: using recombinant truncated proteins
T2 sequence (Q9UHA7 6-158): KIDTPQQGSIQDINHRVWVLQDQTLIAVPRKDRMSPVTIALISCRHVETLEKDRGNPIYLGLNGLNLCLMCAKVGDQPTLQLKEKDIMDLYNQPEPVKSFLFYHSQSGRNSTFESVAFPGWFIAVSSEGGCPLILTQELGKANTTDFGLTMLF
Procedure: as §3

[4] = tested on: IL-36γ evoked CXCL1 release from Mouse NIH-3T3 cells; assay: IL-36γ evoked CXCL1 release, mouse NIH-3T3 cells; type: cell-based; conditions: human IL-36γ evoked CXCL1 release, ± S.D.
Procedure: as §1

HaCaT cells [5] = assay: mouse IL-36γ induction of CXCL1 release from HaCaT cells; type: cell-based, human; conditions: agonist mode
Procedure: as §1

IL-36 receptor = biological target: T3, IL-36 receptor (Homo sapiens, UniProt Q9HB29); assay: IL-8 release assay in HaCaT cells
T3 chain: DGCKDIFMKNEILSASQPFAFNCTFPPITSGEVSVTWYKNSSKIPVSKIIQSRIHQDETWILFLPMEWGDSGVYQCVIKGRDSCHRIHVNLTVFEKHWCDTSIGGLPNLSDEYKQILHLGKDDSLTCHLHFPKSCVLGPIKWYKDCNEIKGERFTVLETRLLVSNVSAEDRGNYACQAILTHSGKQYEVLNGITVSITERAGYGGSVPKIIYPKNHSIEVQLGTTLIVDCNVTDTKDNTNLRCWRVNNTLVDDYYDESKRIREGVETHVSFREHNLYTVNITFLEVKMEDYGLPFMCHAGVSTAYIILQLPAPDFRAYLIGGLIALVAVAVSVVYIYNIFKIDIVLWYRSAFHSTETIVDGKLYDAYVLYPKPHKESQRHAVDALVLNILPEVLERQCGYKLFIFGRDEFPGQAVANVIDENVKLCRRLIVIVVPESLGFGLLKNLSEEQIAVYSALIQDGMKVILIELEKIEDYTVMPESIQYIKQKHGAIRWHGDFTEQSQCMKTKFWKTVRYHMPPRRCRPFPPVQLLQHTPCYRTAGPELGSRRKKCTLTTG

[6] = biological target: T4, human IL-36R/IL-1RAcP extracellular domain (ECD) knob-in-hole Fc (human, UniProt Q9HB29 20-335; Q9NPH3 21-367); assay: AlphaScreen or HTRF; TR-FRET, competitive mode: unlabeled human IL-36γ or IL-36Ra titrated against 6 nM Alexa 488 human IL-36γ, receptor heterodimer 1.5 μg/mL, 6 nM Tb-anti-His antibody; Ki by the Cheng-Prusoff equation; conditions: both partners purified
T4 construct: human IL-36 receptor subunit (IL-36R), extracellular domain; human IL-1RAcP co-receptor subunit, extracellular domain; Both proteins were engineered with an Fc 'knob-in-hole' to force heterodimerisation; also called hIL-36R/IL-1RAcP ECD knob-in-hole Fc; human IL-36R/IL-1RAcP ECD Fc heterodimer; not shown: His tag (from the nickel column and the Tb-anti-His detection)
T4 sequence (looked up) 1: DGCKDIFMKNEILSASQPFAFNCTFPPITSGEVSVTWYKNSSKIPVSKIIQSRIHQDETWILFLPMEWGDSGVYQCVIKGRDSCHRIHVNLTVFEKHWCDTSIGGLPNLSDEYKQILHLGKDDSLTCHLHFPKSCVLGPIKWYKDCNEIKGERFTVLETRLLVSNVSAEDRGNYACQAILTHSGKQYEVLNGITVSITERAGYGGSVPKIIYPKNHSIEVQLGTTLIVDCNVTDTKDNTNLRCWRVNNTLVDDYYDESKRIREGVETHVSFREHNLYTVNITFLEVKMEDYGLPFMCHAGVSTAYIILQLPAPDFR
T4 sequence (looked up) 2: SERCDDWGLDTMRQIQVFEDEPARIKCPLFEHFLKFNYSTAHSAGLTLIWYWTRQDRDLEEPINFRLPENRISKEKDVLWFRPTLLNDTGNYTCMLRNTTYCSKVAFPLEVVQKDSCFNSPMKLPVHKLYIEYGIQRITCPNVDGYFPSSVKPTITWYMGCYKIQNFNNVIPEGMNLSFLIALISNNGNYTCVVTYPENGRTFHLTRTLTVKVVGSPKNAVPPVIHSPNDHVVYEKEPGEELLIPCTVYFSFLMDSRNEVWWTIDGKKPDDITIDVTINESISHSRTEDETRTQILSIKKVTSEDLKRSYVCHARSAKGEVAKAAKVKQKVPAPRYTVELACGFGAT

[7] = biological target: T4, human IL-36R/IL-1RAcP extracellular …; assay: AlphaScreen or HTRF; TR-FRET, direct binding: receptor heterodimer 1.5 μg/mL with 6 nM Tb-anti-His antibody, Alexa 488 IL-36γ titrated; 1% BSA in 1X PBS; overnight at 4 °C, read at room temperature; ratio 520 nm/495 nm; conditions: both partners purified
[8] = tested on: IL-36γ evoked IL-8 release from HaCaT cells; assay: IL-36γ evoked IL-8 release assay from HaCaT cells; type: cell-based, human; conditions: agonist mode, n = 4
Procedure: as §1, §2

B1: mouse IL-36γ: mouse IL-36γ cytokine (protein, UniProt Q8R460 13-164, looked up)
Interleukin-36 gamma: GRETPDFGEVFDLDQQVWIFRNQALVTVPRSHRVTPVSVTILPCKYPESLEQDKGIAIYLGIQNPDKCLFCKEVNGHPTLLLKEEKILDLYHHPEPMKPFLFYHTRTGGTSTFESVAFPGHYIASSKTGNPIFLTSKKGEYYNINFNLDIKS
induction of CXCL1 release from HaCaT cells (HaCaT cells [5]): cannot induce CXCL1 release

B4: human IL-36γ: recombinant human IL-36γ (18–169) cytokine, IL-36R agonist (protein)
chain: SMCKPITGTINDLNQQVWTLQGQNLVAVPRSDSVTPVTVAVITCKYPEALEQGRGDPIYLGIQNPEMCLYCEKVGEQPTLQLKEQKIMDLYGQPEPVKPFLFYRAKTGRTSTLESVAFPDWFIASSKRDQPIILTSELGKSYNTAFELNIND
modifications: left off: His6, N-terminal, cleaved | SUMO, N-terminal, cleaved
notes: recombinant human IL-36γ (18–169) cytokine, IL-36R agonist
EC50 [8]: 0.2 ± 0.1 nM

Continued, in another order:

ΔTm at 100 µM (human IL-36γ): 5.4 °C
binding / affinity to human IL-36α (human IL-36α): do not bind
Molecule: COC(c1ccccc1)(c1ccccc1)C(Oc1nc(C)cc(-c2ccc(C)c(N)c2)n1)C(=O)O (centres unmarked) [Compound A-706]
activity in the hIL-1β induced IL-8 release assay [1]: no activity
cellular toxicity (HaCaT cells [2]): no activity in the hIL-1β induced IL-8 release assay or cellular toxicity
Ki [3]: 121 ± 32 nM
Ki [4]: 181 ± 54 nM

Ki (IL-36 receptor): 0.6 nM
Ki [6]: 2 nM
B2: human IL-36Ra (2–155) (ligand, UniProt Q9UBH0 2-155, looked up)
chain: VLSGALCFRMKDSALKVLYLHNNQLLAGGLHAGKVIKGEEISVVPNRWLDASLSPVILGVQGGSQCLSCGVGQEPTLTLEPVNIMELYLGAKESKSFTFYRRDMGLTSSFESAAYPGWFLCTVPEADQPVRLTQLPENGGWNAPITDFYFQQCD
notes: human IL-36 receptor antagonist (IL-36Ra), residues 2-155; also called hIL-36Ra; recombinant soluble hIL-36Ra; source: E. coli BL21 (DE3), purified (nickel column, ULP1 cleavage, Superdex 75 gel filtration); not shown: His6, N-terminal, cleaved; SUMO, N-terminal, cleaved

EC50 [7]: 0.3 nM
B3: N-terminal labeled Alexa 488 human IL-36γ (ligand, UniProt Q9NZH8 18-169, looked up)
chain: SMCKPITGTINDLNQQVWTLQGQNLVAVPRSDSVTPVTVAVITCKYPEALEQGRGDPIYLGIQNPEMCLYCEKVGEQPTLQLKEQKIMDLYGQPEPVKPFLFYRAKTGRTSTLESVAFPDWFIASSKRDQPIILTSELGKSYNTAFELNIND
modifications: Alexa Fluor 488 (N-hydroxysuccinimidyl ester); called N-terminal labeled
notes: human IL-36γ, residues 18-169; Same protein as m3, with the dye; also called Alexa-488 labeled hIL-36γ; NHS-AlexaFluor-488 conjugated human IL-36γ; not shown: His6, N-terminal, cleaved; SUMO, N-terminal, cleaved
